Assay results: paper PMC8300687, “A Fine-Tuned Lipophilicity/Hydrophilicity Ratio Governs Antibacterial Potency and Selectivity of Bifurcated Halogen Bond-Forming NBTIs” (Antibiotics, 2021)
Values after ≈ are worked out from the molar mass of the structure shown. Like-named read-outs stand apart in the source and are kept apart here.

Tests used:
[1] = test system: A. baumannii 8C6 (GES-14); experiment: MIC broth microdilution, A. baumannii; type: cell-based; conditions: Acinetobacter baumannii; read-out: MIC A. baumannii 8C6 (GES-14)
Description: (§1) Antimicrobial testing was carried out by the broth microdilution method in 96-well plate format following the Clinical and Laboratory Standards Institute (CLSI) guidelines and European Committee on Antimicrobial Susceptibility Testing (EUCAST) recommendations. Bacterial suspension of specific bacterial strain equivalent to 0.5 McFarland turbidity standard was diluted with cation-adjusted Mueller Hinton broth with TES (Thermo Fisher Diagnostic, Landsmeer, The Netherlands), to obtain a final inoculum of 10^5 CFU/mL. Compounds dissolved in DMSO and inoculum were mixed together and incubated for 18–20 h at 35 °C. Suspensions of Mycobacterium sp. were prepared into a tube of Middelbrook 7H9 broth supplemented with 5% OADC (Thermo Scientific, Trek Diagnostic Systems, West Sussex, UK) and incubated for at least 10 days. After incubation the minimal inhibitory concentration (MIC) values were determined by visual inspection as the lowest dilution of compounds showing no turbidity. Tetracycline was used as a positive control on every assay plate.

Human topoisomerase IIα = molecular target: T1, Human topoisomerase IIα (Homo sapiens, UniProt P11388); experiment: Human topoisomerase II Alpha Relaxation High Throughput Plate assay; type: biochemical; conditions: 0.5 h; residual activity of the enzyme at compound concentration 10 μM, mean ± SD; read-out: Human Topo II (% RA)
T1 construct: purchased Inspiralis (Norwich, UK)
Description: A Human topoisomerase II Alpha Relaxation High Throughput Plate assay kit, purchased from Inspiralis (Norwich, UK) was used to evaluate the selectivity of compounds for the bacterial enzymes over the homologous human topoisomerase II. […] Biotinylated oligonucleotide in wash buffer was immobilized onto the wells and the excess oligonucleotide was washed off with wash buffer. […] The reactions were stopped by adding the TF buffer (50 mM NaOAc (pH 4.7), 50 mM NaCl, and 50 mM MgCl2) to allow the triplex formation (biotin-oligonucleotide-plasmid) for additional 30 min. Afterward, the unbound plasmid was washed off using TF buffer, and the solution of Promega Diamond dye in T10 buffer (10 mM Tris-HCl (pH 8.0), 1 mM EDTA) was added. […] Screening was performed at inhibitor concentrations of 10 μM. Raw data were converted to mean ± SD percentage of residual activity of the enzyme obtained by two independent measurements.

HUVEC = experiment: Metabolic activity assessment (cytotoxicity), HUVEC; type: cell-based; conditions: Homo sapiens, 72 h, metabolic activity after 72 h treatment
Description: Cells of the HepG2 line (ATCC® HB-8065™) and HUVEC (ATCC® CRL-1730™) were cultured in Dulbecco’s Modified Eagle Medium (DMEM; Sigma-Aldrich, St. Louis, MO, USA) supplemented with 10% heat-deactivated FBS (Gibco, Grand Island, NE, USA), 2 mM L-glutamine, 100 U/mL penicillin, 100 μg/mL streptomycin (all from Sigma-Aldrich, St. Louis, MO, USA) in a humidified chamber at 37 °C and 5% CO2. The experiments were carried out on passages 7–9 for both cell lines. The tested compounds were dissolved in DMSO and further diluted in culture medium to a desired final concentration. Cells were seeded into 96-well plates at 8 × 10^4 cells/mL (100 μL/well) and incubated for 24 h to attach onto the wells. Cells were treated with 1 μM and 50 μM of each compound of interest or corresponding vehicle as control. […] The metabolic activity was assessed after 72 h treatment using the CellTiter 96 Aqueous One Solution Cell Proliferation Assay (Promega, Madison, WI, USA), in accordance with the manufacturer’s instructions. The absorbance was measured at 492 nm on an automated microplate reader BioTek Synergy HT (BioTek Instruments, Inc., Winooski, VT, USA). Data are presented as the percentage of metabolic activity of control cells stimulated with vehicle or as IC50 value (mean ± SD) from two independent experiments, each conducted in duplicate or triplicate. IC50 values were calculated by a non-linear regression model using Graph Pad Prism 7 software.

MRSA (QA-11.7) = experiment: MIC broth microdilution, MRSA QA-11.7; type: cell-based, methicillin-resistant S. aureus; conditions: Staphylococcus aureus, 20 h, read-out: MIC MRSA (QA-11.7)
Description: as §1

S. aureus (ATCC 29213) = experiment: MIC broth microdilution, S. aureus ATCC 29213; type: cell-based; conditions: for MIC: Staphylococcus aureus
Description: as §1

S. pneumoniae (QA-10/02) = experiment: MIC broth microdilution, S. pneumoniae; type: cell-based; conditions: Streptococcus pneumoniae
Description: as §1

[2] = test system: S. alachua RDK 030c (QA-1482/04); experiment: MIC broth microdilution, S. alachua; type: cell-based; conditions: Salmonella; read-out: MIC S. alachua RDK 030c (QA-1482/04)
Description: as §1

E. coli (QA-11.8) = experiment: MIC broth microdilution, E. coli QA-11.8; type: cell-based; conditions: Escherichia coli, 20 h; read-out: MIC E. coli (QA-11.8)
Description: as §1

[3] = test system: E. faecalis DRK 057 (ATCC 29212); experiment: MIC broth microdilution, E. faecalis; type: cell-based; conditions: Enterococcus faecalis, ATCC29212; read-out: MIC E. faecalis DRK 057 (ATCC 29212)
Description: as §1

E. coli (ATCC 25922) = experiment: MIC broth microdilution, E. coli ATCC 25922; type: cell-based; conditions: Escherichia coli, ATCC25922
Method in brief: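 MIC taken by eye as the lowest compound dilution with no turbidity. Inoculum 10^5 CFU/mL (final) in cation-adjusted MH broth with TES; 18–20 h, 35 °C. Mycobacteria were grown in Middelbrook 7H9 with 5% OADC for at least 10 days. Tetracycline control on each plate.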

E. coli (QA-11.3) = experiment: MIC broth microdilution, E. coli QA-11.3; type: cell-based; conditions: Escherichia coli, 20 h; read-out: MIC E. coli (QA-11.3)
Description: as §1

MRSA (QA-11.2) = experiment: MIC broth microdilution, MRSA QA-11.2; type: cell-based, methicillin-resistant S. aureus; conditions: Staphylococcus aureus, 20 h, resistant to cefoxitin, chloramphenicol, clindamycin, linezolid, tetracycline, thiamulin, trimethoprim, read-out: MIC MRSA (QA-11.2)
Description: as §1

MRSA = experiment: MIC broth microdilution, MRSA; type: cell-based, methicillin-resistant S. aureus; conditions: Staphylococcus aureus, read-out: MIC MRSA
Description: as §1

M. avium = experiment: MIC, M. avium; type: cell-based; conditions: Mycobacterium avium; read-out: MIC M. avium
Description: as §1

MRSA (QA-11.4) = experiment: MIC broth microdilution, MRSA QA-11.4; type: cell-based, methicillin-resistant S. aureus; conditions: Staphylococcus aureus, 20 h, resistant to cefoxitin, read-out: MIC MRSA (QA-11.4)
Description: as §1

[4] = test system: S. agalactiae RDK 047 (QA-990/02); experiment: MIC broth microdilution, S. agalactiae; type: cell-based; conditions: Streptococcus agalactiae; read-out: MIC S. agalactiae RDK 047 (QA-990/02)
Description: as §1

[5] = test system: P. aeruginosa RDK 184 (DSM 939); experiment: MIC broth microdilution, P. aeruginosa; type: cell-based; conditions: Pseudomonas aeruginosa, DSM939; read-out: MIC P. aeruginosa RDK 184 (DSM 939)
Description: as §1

[6] = ATCC29213, read-out: MIC S. aureus (ATCC 29213)
[7] = E. coli ATCC 25922, read-out: E. coli MIC (converted)
[8] = read-out: MIC E. coli (ATCC 25922)
[9] = ATCC29213, S. aureus ATCC 29213, read-out: S. aureus MIC (converted)

T1 sequence (P11388 whole entry): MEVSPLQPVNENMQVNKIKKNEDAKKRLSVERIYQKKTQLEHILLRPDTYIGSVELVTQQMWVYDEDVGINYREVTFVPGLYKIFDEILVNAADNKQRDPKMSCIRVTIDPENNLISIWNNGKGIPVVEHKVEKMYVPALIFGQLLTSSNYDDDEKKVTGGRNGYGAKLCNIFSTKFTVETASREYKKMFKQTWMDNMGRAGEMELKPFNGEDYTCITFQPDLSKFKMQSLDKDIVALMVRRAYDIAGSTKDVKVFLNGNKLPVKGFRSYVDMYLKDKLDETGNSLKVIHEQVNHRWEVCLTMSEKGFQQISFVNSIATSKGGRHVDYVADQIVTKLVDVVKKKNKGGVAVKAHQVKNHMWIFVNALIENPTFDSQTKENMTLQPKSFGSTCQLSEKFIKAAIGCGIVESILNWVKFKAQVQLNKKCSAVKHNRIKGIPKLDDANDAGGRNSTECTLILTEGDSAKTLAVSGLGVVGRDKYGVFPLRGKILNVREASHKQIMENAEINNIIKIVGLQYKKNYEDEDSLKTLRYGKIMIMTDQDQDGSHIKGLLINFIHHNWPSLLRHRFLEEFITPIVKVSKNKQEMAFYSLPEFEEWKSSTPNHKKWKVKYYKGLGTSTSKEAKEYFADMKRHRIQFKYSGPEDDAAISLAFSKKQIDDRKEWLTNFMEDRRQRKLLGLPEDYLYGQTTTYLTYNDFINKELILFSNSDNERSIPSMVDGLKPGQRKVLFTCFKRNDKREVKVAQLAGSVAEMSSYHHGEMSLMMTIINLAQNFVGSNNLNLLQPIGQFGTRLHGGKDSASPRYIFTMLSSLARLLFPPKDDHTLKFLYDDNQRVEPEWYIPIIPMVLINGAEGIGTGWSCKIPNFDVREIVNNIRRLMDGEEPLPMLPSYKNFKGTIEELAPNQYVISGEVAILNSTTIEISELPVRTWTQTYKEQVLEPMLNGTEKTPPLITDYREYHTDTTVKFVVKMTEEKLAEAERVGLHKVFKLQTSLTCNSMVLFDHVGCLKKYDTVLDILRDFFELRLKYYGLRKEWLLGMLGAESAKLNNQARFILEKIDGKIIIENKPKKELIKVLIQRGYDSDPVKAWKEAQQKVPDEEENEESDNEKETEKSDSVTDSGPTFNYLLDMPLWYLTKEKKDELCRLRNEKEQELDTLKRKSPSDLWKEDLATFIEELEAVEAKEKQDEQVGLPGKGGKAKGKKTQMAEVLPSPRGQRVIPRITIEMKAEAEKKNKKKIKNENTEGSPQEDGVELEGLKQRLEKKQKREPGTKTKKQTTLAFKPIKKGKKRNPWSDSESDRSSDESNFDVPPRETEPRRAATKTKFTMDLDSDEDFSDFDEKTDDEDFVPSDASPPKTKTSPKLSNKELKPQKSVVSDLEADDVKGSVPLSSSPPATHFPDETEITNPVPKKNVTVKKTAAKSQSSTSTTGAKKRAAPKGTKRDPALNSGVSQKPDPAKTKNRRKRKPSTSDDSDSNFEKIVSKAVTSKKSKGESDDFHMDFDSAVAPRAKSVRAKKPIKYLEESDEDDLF

Row | Structure (SMILES) | MIC [1] [µg/mL] | remaining activity at 10 µM (Human topoisomerase IIα) [%] | IC50 (HUVEC) [µM] | MIC (MRSA (QA-11.7)) [µg/mL] | MIC (S. aureus (ATCC 29213); [6]) [µg/mL] | MIC (S. pneumoniae (QA-10/02)) [µg/mL] | MIC [2] [µg/mL] | MIC (E. coli (QA-11.8)) [µg/mL] | MIC [3] [µg/mL] | MIC (E. coli (ATCC 25922); [7]) [µM] | MIC (E. coli (ATCC 25922); [8]) [µg/mL] | MIC (E. coli (QA-11.3)) [µg/mL] | MIC (MRSA (QA-11.2)) [µg/mL] | MIC (MRSA) [µg/mL] | MIC (M. avium) [µg/mL] | MIC (MRSA (QA-11.4)) [µg/mL] | MIC [4] [µg/mL] | MIC [5] [µg/mL] | MIC (S. aureus (ATCC 29213); [9]) [µM] | other results
1 | COc1ccc2nccc(CCN3CCC(NCc4ccc(I)cc4)CC3)c2n1 [Compound 15] | 0.25 (≈ 0.498 µM) | 88.3 ± 3.33 | ~20 | 0.0078 (≈ 0.0155 µM) | 0.0078 | 0.015 (≈ 0.0299 µM) | 8 (≈ 15.9 µM) | 0.25 (≈ 0.498 µM) | 1 (≈ 1.99 µM) | 3.98 | 2 | 1 (≈ 1.99 µM) | 0.0312 (≈ 0.0622 µM) | 0.0078 (≈ 0.0155 µM) | 1 (≈ 1.99 µM) | 0.0625 (≈ 0.124 µM) | 0.125 (≈ 0.249 µM) | 32 (≈ 63.7 µM) |  | S. aureus MIC in molar (S. aureus (ATCC 29213); S. aureus ATCC 29213): 0.016 µM; MIC (S. aureus (ATCC 29213); ATCC29213, 20 h, S. aureus ATCC 29213, read-out: S. aureus MIC (converted)): 0.01 µM; MIC (E. coli (ATCC 25922); range over E. coli strains, read-out: MIC E. coli): 0.25 to 2 µg/mL
2 | COc1ccc2nccc(CCN3CCC(NCc4ccc(CO)cc4)CC3)c2n1 [Compound 16] | 128 (≈ 315 µM) | 97.7 ± 1.08 | > 50 | 4 (≈ 9.84 µM) | 4 | 2 (≈ 4.92 µM) | > 128 | 128 (≈ 315 µM) | 8 (≈ 19.7 µM) | 315 | 128 | 32 (≈ 78.7 µM) | 8 (≈ 19.7 µM) | 4 (≈ 9.84 µM) | > 128 | 8 (≈ 19.7 µM) | 8 (≈ 19.7 µM) | > 128 | 9.84 | 
3 | COc1ccc2nccc(CCN3CCC(NCc4ccc(OC(F)F)c(OC)c4)CC3)c2n1 [Compound 19, N-(4-(Difluoromethoxy)-3-methoxybenzyl)-1-(2-(6-methoxy-1,5-naphthyridin-4-yl)ethyl)piperidin-4-amine] | 8 (≈ 16.9 µM) | 96.4 ± 2.3 | 19.8 ± 2.58 | 2 (≈ 4.23 µM) | 1 | 2 (≈ 4.23 µM) | 128 (≈ 271 µM) | 4 (≈ 8.46 µM) | 16 (≈ 33.9 µM) | 67.7 | 32 | 4 (≈ 8.46 µM) | 2 (≈ 4.23 µM) | 2 (≈ 4.23 µM) | 128 (≈ 271 µM) | 2 (≈ 4.23 µM) | < 1 | > 128 | 2.12 | 
